Data on twelve compounds can be found in ChEMBL document CHEMBL1201862, “PubChem BioAssay data set” (2004).

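Dose response: 5 concentrations. Exposure: 48 h. Format: 96-well plates. Endpoint: linear interpolation; highest concentration if not reached. GI50 marks 50% less growth.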 Active and inactive are the calls of the source. Rule as the data show it: active = GI50 up to about 1.1 µM and inactive = higher.

What all share (assay): NCI anticancer screen, dose series, 48 h
The subject of test [1] is OVCAR-3.
Test [2] has as its system CCRF-CEM.
The test system of test [3] is HCT-116.
The test system of test [4] is K562.
Test [5] deals with IGROV-1.
The test system of test [6] is CAKI-1.
Test [7] deals with EKVX.
Test [8] has as its system MOLT-4.
Test [9] relates to UACC-62.
The test system of test [10] is SK-OV-3.
Test [11] has as its system HL-60.
Test [12] relates to UACC-257.
Test [13] relates to NCI-H460.
Test [14] deals with SK-MEL-5.
Test [15] deals with SW-620.
Test [16] relates to OVCAR-4.
The subject of test [17] is KM12.
Test [18] concerns LOX IMVI.
Test [19] deals with U-251.

Take `CCCSc1nc(COC(=O)NC)c(COC(=O)NC)n1C`: the GI50 was > 100 µM (inactive) in test [1]; 20.7 µM (inactive) in [2]; > 100 µM (inactive) in test [3]; 31.4 µM (inactive) in test [4]; > 100 µM (inactive) in test [5]; 48.1 µM (inactive) in test [6]. Moreover, the GI50 in test [7] was > 100 µM (inactive); in [8] it was 27.7 µM (inactive); in test [9], > 100 µM (inactive); in test [10], > 100 µM (inactive); in [11] it was 43.9 µM (inactive); in test [12], > 100 µM (inactive). The GI50 in test [13] is 54.7 µM (inactive); in test [14] it was > 100 µM (inactive); in test [15] it was > 95.7 µM (inactive); in test [16] it was > 100 µM (inactive); in test [17] it was > 100 µM (inactive); in test [18] it was > 100 µM (inactive).
As for `C/C=C/C(C#N)O[Si](C)(C)C` (stereo not given), the GI50 in test [1], in test [3], in test [5], in test [6], in [7] and in test [8] was > 100 µM (inactive) each time. Further, the GI50 in [9], in [10], in test [11], in test [12], in test [19] and in test [13] was > 100 µM (inactive) throughout. Besides, the GI50 in test [14], in [15], in [16] and in test [17] was > 100 µM (inactive) each time.
On to `Cc1cc(S(=O)(=O)Nc2nncn2-c2ccc(Cl)cc2)c(S)cc1Cl`, for which the GI50 in test [1], in test [2], in test [3], in test [4], in test [5] and in [6] was > 10 µM (inactive) throughout. Moreover, the GI50 in test [7], in test [8], in [9], in test [10], in test [11] and in test [12] was > 10 µM (inactive) throughout. Further, the GI50 in test [19], in [13], in [14], in [15], in test [16] and in [17] was > 10 µM (inactive) in each case. Also, the GI50 in test [18] is > 10 µM (inactive).
As to `CC1(C)C2CCC3(OCCO3)C1C1OC12` (stereo not given), the GI50 in test [1] is > 100 µM (inactive); in test [2] it was > 100 µM (inactive); in [3] it was > 100 µM (inactive); in test [4], > 100 µM (inactive); in test [6], 44.3 µM (inactive); in [7], > 100 µM (inactive). Further, the GI50 in test [8], in test [10], in [11], in [12], in test [19] and in [13] was > 100 µM (inactive) throughout. Also, the GI50 in test [14], in test [15], in [16], in [17] and in [18] was > 100 µM (inactive) in each case.
`COc1ccc(CCC2NCCc3cc(OC)c(OC)cc32)cc1` (stereo not given): the GI50 in test [1], in test [2], in test [3], in [4], in test [6] and in [7] was > 100 µM (inactive) in each case. The GI50 in test [8], in test [12], in [19], in test [13], in test [14] and in [15] was > 100 µM (inactive) in each case. Moreover, the results for the GI50 in test [16] and in test [17] were 25.3 µM (inactive) and > 100 µM (inactive), respectively.
For `N#CN=C(N(Cc1ccccc1)Cc1ccccc1)N(Cc1ccccc1)Cc1ccccc1`, the GI50 in [1] was 10.9 µM (inactive); in [2], 5.73 µM (inactive); in [3] it was 3.51 µM (inactive); in test [4], 4.36 µM (inactive); in test [5], 3.48 µM (inactive); in [6], 11.6 µM (inactive). Also, the GI50 was 7.11 µM (inactive) in test [7]; 2.74 µM (inactive) in [8]; 6.32 µM (inactive) in test [9]; 21.8 µM (inactive) in [10]; 5.14 µM (inactive) in test [11]; 8.47 µM (inactive) in test [12]. Besides, the GI50 in test [13] was 3.88 µM (inactive); in test [15], 9.82 µM (inactive); in [17], 11.9 µM (inactive); in [18], 20.4 µM (inactive).
On to `Cc1ccc(-c2nnc3s/c(=C\c4ccc(N(C)C)cc4)c(=O)n23)cc1`, for which the GI50 in test [1] is > 100 µM (inactive); in [2] it was > 100 µM (inactive); in test [3] it was > 100 µM (inactive); in test [4], > 10 µM (inactive); in test [5], > 100 µM (inactive); in test [6], > 100 µM (inactive). Also, the GI50 in test [7] is > 100 µM (inactive); in [8] it was > 100 µM (inactive); in [9] it was > 100 µM (inactive); in test [10], > 100 µM (inactive); in test [11], > 100 µM (inactive); in [12] it was 11.7 µM (inactive). The GI50 in [19], in test [13], in test [14], in test [15], in test [16] and in test [17] was > 100 µM (inactive) each time. Also, the GI50 in test [18] was > 100 µM (inactive).
Take `Cc1c2c(n(CCN(C)C)c1C)NN=C(C#N)S2(=O)=O`: the GI50 in [1], in test [3], in test [4], in test [5], in test [7] and in test [8] was > 100 µM (inactive) each time. For the same compound, the GI50 in [9], in [10], in test [12], in test [19], in [13] and in test [15] was > 100 µM (inactive) in each case. Moreover, the GI50 in test [16], in [17] and in [18] was > 100 µM (inactive) each time.
As for `CC#C[C@@]1(O)CCCC[C@@H]1O`, the GI50 in [1], in test [2], in test [3], in [4], in test [5] and in test [7] was > 100 µM (inactive) each time. Also, the GI50 in [8], in [9], in test [10], in test [11], in test [12] and in test [19] was > 100 µM (inactive) in each case. In addition, the GI50 in test [13], in test [14], in test [15], in test [16], in [17] and in test [18] was > 100 µM (inactive) throughout.
In the case of `CC1(C)OCC[C@@H]1[Si](C)(C)C`, the GI50 is 71.9 µM (inactive) in test [1]; 26.9 µM (inactive) in [2]; 92.7 µM (inactive) in test [3]; 21.4 µM (inactive) in [4]; > 100 µM (inactive) in [5]; 26.2 µM (inactive) in test [7]. Also, the GI50 in test [8] was 33 µM (inactive); in test [9], 24.5 µM (inactive); in test [10] it was > 100 µM (inactive); in test [12], > 100 µM (inactive); in test [19] it was > 100 µM (inactive); in test [13], > 100 µM (inactive). For the same compound, the GI50 in test [14] is 26.9 µM (inactive); in test [15], > 100 µM (inactive); in [16], 55.3 µM (inactive); in test [17], > 100 µM (inactive); in test [18], 56.9 µM (inactive).
For the compound `CN(/N=C/c1cccc2cccnc12)c1ccc([N+](=O)[O-])cc1[N+](=O)[O-]`, the GI50 was 16.4 µM (inactive) in [1]; > 96.6 µM (inactive) in test [2]; 35.1 µM (inactive) in test [3]; > 100 µM (inactive) in test [4]; 24.5 µM (inactive) in test [5]; 24.4 µM (inactive) in [6]. The GI50 in [7] was 45.8 µM (inactive); in test [8], > 100 µM (inactive); in [9], 25.1 µM (inactive); in test [10], 20.6 µM (inactive); in test [11] it was 40.8 µM (inactive); in test [12] it was 82 µM (inactive). Besides, the GI50 is 13.9 µM (inactive) in [19]; 46 µM (inactive) in test [13]; 52.5 µM (inactive) in test [14]; 99.5 µM (inactive) in test [15]; 20.7 µM (inactive) in test [16]; > 100 µM (inactive) in [17]. Moreover, the GI50 in test [18] was 57.9 µM (inactive).
Consider `COC1CC(=O)C2C(=O)N(c3ccccc3)C(=O)C23C(C(=O)c2ccccc2)=C(C)NC13O` (stereo not given), for which the GI50 was 2.12 µM (inactive) in [1]; 3.69 µM (inactive) in test [2]; 9.2 µM (inactive) in [3]; < 0.01 µM (active) in test [4]; 10.4 µM (inactive) in test [5]; 4.6 µM (inactive) in [6]. For the same compound, the GI50 is 17.4 µM (inactive) in test [7]; 16.4 µM (inactive) in [9]; 19.9 µM (inactive) in [10]; 22.9 µM (inactive) in test [12]; 17.3 µM (inactive) in [19]; 21.7 µM (inactive) in [13]. Further, the GI50 in test [14] is 18.6 µM (inactive); in test [15] it was 5.02 µM (inactive); in test [16], 4.92 µM (inactive); in test [17] it was 18 µM (inactive); in test [18], 13.4 µM (inactive).
